From patent publication US8350118B2, “Allergic disease model animals” (Keio University, priority 2008, dated 2013)

Test system: Langerhans cells
Test: corneum-barrier transmission: uptake into Langerhans cells after application to ear skin surface
Assay type: in vivo, mouse
Settings: 7 weeks of age, 10 mg/mL applied to skin surface inside the ear, ears collected after 24 hours
Source text: To confirm that the skin-barrier function is impaired in FLG-gene deficient mice, a method was developed for evaluating skin-barrier function based on the amount of uptake of antigen into Langerhans cells that are antigen-presenting cells in epidermis, to examine the skin-barrier function in FLG^−/− mice and wild-type mice. In a conventional method for evaluating antigen uptake into Langerhans cells by externally applying antigen to the skin, reagents such as FITC that easily pass through the corneum barrier has been used. However, a change in the corneum-barrier transmission due to loss of filaggrin cannot be observed by the methods using reagents that easily pass through the corneum barrier. Thus the present inventors established for the first time a method for evaluating corneum-barrier transmission using sulfo-NHS-LC-biotin which is a cell-membrane impermeable, protein-biotinylating reagent. This method has enabled the observation of a change in corneum-barrier transmission. The structural formula of sulfo-NHS-LC-biotin is shown below. Sulfo-NHS-LC-biotin (#21335; Thermo Scientific) was applied to a FLG^−/− mouse and a wild-type littermate mouse at 7 weeks of age on the skin surface inside the ear, and the uptake into Langerhans cells was observed under a fluorescence microscope. […]

O=C(CCCCC1SCC2NC(=O)NC21)NCCCCCC(=O)ON1C(=O)CC(S(=O)(=O)[O-])C1=O.[Na+] (centres unmarked) [biotin, sulfo-NHS-LC-biotin]
biotin uptake into Langerhans cells (FLG−/− mouse): biotin (green) taken up was accumulated in Langerhans cell body (red) | biotin uptake into Langerhans cells (wild-type littermate mouse): no biotin (green) uptake into Langerhans cells (red) was observed
